Results taken from BindingDB's records for doi:10.1021/jm031046g (Novartis Institutes For Biomedical Research, 2004).

Each compound was assayed against C-C chemokine receptor type 5 (Macaca fascicularis) (assay: Antagonistic activity against monkey C-C chemokine receptor type 5.).

Row | SMILES | IC50
1 | Cc1cc[n+]([O-])c(C)c1C(=O)N1CCC(N2CCC(N(c3ccccc3)c3ccccc3)CC2)CC1 [(2,4-Dimethyl-1-oxy-pyridin-3-yl)-(4-diphenylamino-[1,4']bipiperidinyl-1'-yl)-methanone] | 117 nM
2 | Cc1cccc(C)c1C(=O)N1CCC(C)(N2CCC(Nc3ccc4ccn(C)c4c3)CC2)CC1 [(2,6-Dimethyl-phenyl)-[4'-methyl-4-(1-methyl-1H-indol-6-ylamino)-[1,4']bipiperidinyl-1'-yl]-methanone] | 43 nM
3 | Cc1cccc(C)c1C(=O)N1CCC(C)(N2CCC(Nc3cccc4ccn(C)c34)CC2)CC1 [(2,6-Dimethyl-phenyl)-[4'-methyl-4-(1-methyl-1H-indol-7-ylamino)-[1,4']bipiperidinyl-1'-yl]-methanone] | 147 nM
4 | Cc1cccc(C)c1C(=O)N1CCC(C)(N2CCC(Nc3ccc(C(F)(F)F)cc3)CC2)CC1 [(2,6-Dimethyl-phenyl)-[4'-methyl-4-(4-trifluoromethyl-phenylamino)-[1,4']bipiperidinyl-1'-yl]-methanone] | 1.1 nM
5 | Cc1ccccc1C(=O)N1CCC(C)(N2CCC(N(c3ccccc3)c3ccccc3)CC2)CC1 [(4-Diphenylamino-4'-methyl-[1,4']bipiperidinyl-1'-yl)-o-tolyl-methanone] | 28.6 nM
6 | Cc1cccc(C)c1C(=O)N1CCC(C)(N2CCC(N(Cc3ccccc3)c3ccc(Br)cc3)CC2)CC1 [{4-[Benzyl-(4-bromo-phenyl)-amino]-4'-methyl-[1,4']bipiperidinyl-1'-yl}-(2,6-dimethyl-phenyl)-methanone] | 6.2 nM
